Results from article PMC8151276, “An Integrated Approach toward NanoBRET Tracers for Analysis of GPCR Ligand Engagement” (Molecules, 2021).

How the values were obtained:
Format in all cases: binding
CXCR4 = target: T1, CXCR4 (Homo sapiens, UniProt P61073); test: NanoBRET screen HiBiT-CXCR4 in HEK293
T1 construct: purchased Promega (in-house HiBiT-GPCR construct library, NanoBRET)
Protocol: (§1) Each tracer candidate was screened across the entire library of HiBiT-GPCR constructs using NanoBRET as the detection modality. As depicted in Figure 4A, the specificity of interactions was evaluated through decrease in BRET due to competitive displacement of a bound tracer by excess parental compound. Each tracer was analyzed for binding to each HiBiT-GPCR fusion in the absence and in the presence of competing parental compound. Briefly, HEK293 cells were transfected with HiBiT-GPCR constructs diluted into promoterless DNA to reduce expression and maximize translocation to the cell surface. Each tracer candidate was then screened at concentrations of 1 μM and 0.1 μM across cells expressing these fusions. Cells were treated for 1.5 h with tracer either alone or in the presence of 20 μM competing parental compound (i.e., control). BRET was measured upon addition of purified LgBiT and subsequent complementation with HiBiT genetically fused to a GPCR. The specificity of interactions was assessed through a decrease in BRET signal due to competitive displacement of the bound tracer. To further gauge the robustness of these interactions, the fold response over the control (i.e., BRETtracer/BRETcontrol) was calculated. We chose a 1.5-fold response, which translates to ≥7-fold signal over noise as the minimal threshold required to score an interaction as positive. […]. Below we highlight the screening results obtained for our exemplary fluorescent tracers based on Clozapine, Amitriptyline and AZD1283.
(§2) HiBiT-GPCR DNA constructs were diluted in 10 mM Tris pH 8 to a final concentration of 0.01 μg/μL, arrayed in 96-well plates and stored at −20 °C. For transfection, HEK293 cells were suspended in Opti-MEM (without phenol red) supplemented with 2% fetal bovine serum (Seradigm) and 100 units/mL penicillin–streptomycin (Gibco) at a final concentration of 220,000 cells/mL and dispensed into white 96-well plates at 90 μL/well. Subsequent transfections and screens were carried using an Agilent Bravo Automated Liquid Handling Platform. First, the 96-well HiBiT DNA arrays were diluted 25-fold in Opti-MEM (without serum or phenol red) to a final concentration of 0.0004 μg/μL and 20 μL of the diluted DNAs were transferred into new 96-well plates. Next, promoterless carrier DNA (1 μg/μL) was diluted 25-fold (0.04 μg/μL) and then dispensed into the diluted arrays at 20 μL/well. Following brief mixing, Viafect transfection reagent (Promega) diluted 16-fold into Opti-MEM was dispensed into the plates at 40 μL/well. After mixing by pipetting, plates were incubated for 10 min on the pipetting station deck. The DNA-transfection reagent complexes were then added to plates containing cells. To facilitate the screen, 10 μL of DNA-transfection reagent complexes were added in duplicates to the top 4 and bottom 4 rows, resulting in two identical 48-well arrays per plate. Plates with transfected cells were incubated for 18–20 h at 37 °C/5% CO2. A screen of each tracer across the entire library using two different concentrations requires duplicate plates of transfected cells. Depending on the number of tracers being screened, transfections can be scaled up using the same ratios. The next day, for each tracer, four 20× screening solutions in tracer dilution buffer (Promega) were prepared: two duplicates at final concentration of 20 μM and two duplicates at a final concentration of 2 μM. A competing unmodified compound was added to one of each duplicate at a final concentration of 400 μM. The four resulting solutions were diluted 4-fold in Opti-MEM without serum or phenol red to generate 5× solutions (5 µM and 0.5 µM tracer +/− 100 μM competing compound). To screen the library, a BioTek MultiFlo FX liquid dispenser was used to dispense 22.5 µL of tracer solution to the top 4 rows and 22.5 µL tracer + competing compound solution to the 4 bottom rows. Plates were briefly mixed on an orbital shaker and incubated for 1.5 h at room temperature. […]

HTR1D = target: T2, HTR1D (Homo sapiens, UniProt P28221); test: NanoBRET screen HiBiT-HTR1D in HEK293
T2 construct: purchased Promega (in-house HiBiT-GPCR construct library, NanoBRET)
Protocol: as §1, §2

OPRL1 = target: T3, OPRL1 (Homo sapiens, UniProt P41146); test: NanoBRET screen HiBiT-OPRL1 in HEK293
T3 construct: purchased Promega (in-house HiBiT-GPCR construct library, NanoBRET)
Protocol: as §1, §2

P2RY13 = target: T4, P2RY13 (Homo sapiens, UniProt Q9BPV8); test: NanoBRET screen HiBiT-P2RY13 in HEK293
T4 construct: purchased Promega (in-house HiBiT-GPCR construct library, NanoBRET)
T4 sequence (Q9BPV8 1-354): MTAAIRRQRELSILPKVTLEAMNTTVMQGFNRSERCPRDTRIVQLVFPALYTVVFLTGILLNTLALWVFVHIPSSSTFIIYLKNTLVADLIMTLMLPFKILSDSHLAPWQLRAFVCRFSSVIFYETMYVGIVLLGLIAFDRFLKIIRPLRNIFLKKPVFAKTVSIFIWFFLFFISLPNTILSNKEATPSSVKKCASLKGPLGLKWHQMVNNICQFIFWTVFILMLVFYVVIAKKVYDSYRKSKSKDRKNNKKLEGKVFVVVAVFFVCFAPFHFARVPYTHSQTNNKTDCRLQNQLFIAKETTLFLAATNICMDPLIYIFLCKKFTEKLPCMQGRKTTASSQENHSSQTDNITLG
Protocol: as §1, §2

RXFP4 = target: T5, RXFP4 (Homo sapiens, UniProt Q8TDU9); test: NanoBRET screen HiBiT-RXFP4 in HEK293
T5 construct: purchased Promega (in-house HiBiT-GPCR construct library, NanoBRET)
Protocol: as §1, §2

SSTR1 = target: T6, SSTR1 (Homo sapiens, UniProt P30872); test: NanoBRET screen HiBiT-SSTR1 in HEK293
T6 construct: purchased Promega (in-house HiBiT-GPCR construct library, NanoBRET)
Protocol: as §1, §2

PTGDR2 = target: T7, PTGDR2 (Homo sapiens, UniProt Q9Y5Y4); test: NanoBRET screen HiBiT-PTGDR2 in HEK293; conditions: PTGDR2
T7 construct: purchased Promega (in-house HiBiT-GPCR construct library, NanoBRET)
T7 sequence (Q9Y5Y4 1-395): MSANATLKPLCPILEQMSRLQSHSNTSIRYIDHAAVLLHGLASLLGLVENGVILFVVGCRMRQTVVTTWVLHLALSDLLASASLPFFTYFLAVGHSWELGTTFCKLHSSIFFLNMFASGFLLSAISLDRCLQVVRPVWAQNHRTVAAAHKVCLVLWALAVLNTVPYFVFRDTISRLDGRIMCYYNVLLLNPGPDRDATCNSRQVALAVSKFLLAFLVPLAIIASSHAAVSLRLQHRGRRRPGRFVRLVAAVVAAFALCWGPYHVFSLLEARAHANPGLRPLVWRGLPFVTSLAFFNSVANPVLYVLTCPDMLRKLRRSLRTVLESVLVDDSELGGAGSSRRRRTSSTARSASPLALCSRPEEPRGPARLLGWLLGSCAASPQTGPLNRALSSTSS
Protocol: as §1, §2

GRM2 = target: T8, GRM2 (Homo sapiens, UniProt Q14416); test: NanoBRET screen HiBiT-GRM2 in HEK293; conditions: GRM2
T8 construct: purchased Promega (in-house HiBiT-GPCR construct library, NanoBRET)
Protocol: as §1, §2

T5 sequence (Q8TDU9 whole entry): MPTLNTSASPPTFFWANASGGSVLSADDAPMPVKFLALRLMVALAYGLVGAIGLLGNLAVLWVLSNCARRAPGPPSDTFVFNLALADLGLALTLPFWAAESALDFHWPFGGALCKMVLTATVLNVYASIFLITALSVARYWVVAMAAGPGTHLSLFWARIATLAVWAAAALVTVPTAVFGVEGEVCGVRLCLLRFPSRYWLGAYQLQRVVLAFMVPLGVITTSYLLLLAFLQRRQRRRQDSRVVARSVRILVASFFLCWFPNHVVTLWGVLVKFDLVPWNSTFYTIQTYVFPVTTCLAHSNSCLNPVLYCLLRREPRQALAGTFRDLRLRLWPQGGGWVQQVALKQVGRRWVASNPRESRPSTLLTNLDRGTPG
T2 sequence (P28221 whole entry): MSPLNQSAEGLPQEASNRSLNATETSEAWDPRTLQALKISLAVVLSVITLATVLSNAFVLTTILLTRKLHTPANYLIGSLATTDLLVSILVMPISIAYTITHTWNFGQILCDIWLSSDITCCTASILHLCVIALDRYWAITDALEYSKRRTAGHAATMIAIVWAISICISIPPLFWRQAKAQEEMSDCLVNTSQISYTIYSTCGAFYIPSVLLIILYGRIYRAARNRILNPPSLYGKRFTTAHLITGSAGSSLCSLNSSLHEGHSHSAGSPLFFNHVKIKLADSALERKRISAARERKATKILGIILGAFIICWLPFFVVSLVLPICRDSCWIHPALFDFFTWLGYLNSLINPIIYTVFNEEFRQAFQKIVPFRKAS
T6 sequence (P30872 whole entry): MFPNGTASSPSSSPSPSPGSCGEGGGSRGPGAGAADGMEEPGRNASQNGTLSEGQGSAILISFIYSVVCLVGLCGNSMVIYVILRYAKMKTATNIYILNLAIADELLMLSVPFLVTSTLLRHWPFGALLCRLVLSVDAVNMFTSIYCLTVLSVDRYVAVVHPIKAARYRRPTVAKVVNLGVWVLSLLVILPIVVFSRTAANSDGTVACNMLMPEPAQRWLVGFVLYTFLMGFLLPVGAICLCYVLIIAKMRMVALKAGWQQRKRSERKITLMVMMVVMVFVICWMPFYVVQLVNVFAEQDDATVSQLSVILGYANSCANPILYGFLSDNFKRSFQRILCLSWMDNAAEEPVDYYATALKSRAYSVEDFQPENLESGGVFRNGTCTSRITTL
T3 sequence (P41146 whole entry): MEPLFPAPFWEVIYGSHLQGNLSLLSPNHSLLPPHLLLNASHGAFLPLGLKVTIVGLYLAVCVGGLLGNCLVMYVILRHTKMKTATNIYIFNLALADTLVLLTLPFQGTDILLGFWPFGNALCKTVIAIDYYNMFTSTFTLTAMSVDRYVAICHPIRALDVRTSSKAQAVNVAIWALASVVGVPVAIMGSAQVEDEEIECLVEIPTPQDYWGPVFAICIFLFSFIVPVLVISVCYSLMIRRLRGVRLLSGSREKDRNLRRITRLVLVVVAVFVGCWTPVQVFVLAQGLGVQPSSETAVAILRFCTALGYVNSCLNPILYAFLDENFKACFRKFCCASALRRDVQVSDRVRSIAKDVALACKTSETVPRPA
T8 sequence (Q14416 19-872): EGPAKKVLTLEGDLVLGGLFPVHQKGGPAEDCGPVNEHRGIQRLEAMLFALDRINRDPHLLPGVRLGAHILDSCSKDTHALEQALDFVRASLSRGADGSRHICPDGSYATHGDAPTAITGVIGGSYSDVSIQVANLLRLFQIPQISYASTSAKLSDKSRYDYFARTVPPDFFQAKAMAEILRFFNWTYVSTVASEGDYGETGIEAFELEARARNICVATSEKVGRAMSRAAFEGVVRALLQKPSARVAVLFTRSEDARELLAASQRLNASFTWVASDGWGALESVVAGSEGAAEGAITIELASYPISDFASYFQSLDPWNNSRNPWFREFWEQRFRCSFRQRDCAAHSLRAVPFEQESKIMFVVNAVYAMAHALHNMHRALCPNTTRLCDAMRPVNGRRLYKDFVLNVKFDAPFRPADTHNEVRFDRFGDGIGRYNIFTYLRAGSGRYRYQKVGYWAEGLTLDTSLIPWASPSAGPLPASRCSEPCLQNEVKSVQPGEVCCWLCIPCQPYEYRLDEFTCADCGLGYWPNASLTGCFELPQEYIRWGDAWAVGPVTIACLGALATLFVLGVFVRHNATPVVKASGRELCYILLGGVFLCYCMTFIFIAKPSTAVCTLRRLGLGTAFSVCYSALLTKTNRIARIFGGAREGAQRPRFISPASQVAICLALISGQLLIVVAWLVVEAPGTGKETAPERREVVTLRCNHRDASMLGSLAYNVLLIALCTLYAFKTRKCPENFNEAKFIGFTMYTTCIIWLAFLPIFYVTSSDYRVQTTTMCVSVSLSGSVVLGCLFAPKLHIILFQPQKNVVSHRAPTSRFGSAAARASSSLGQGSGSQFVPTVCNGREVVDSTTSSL
T1 sequence (P61073 whole entry): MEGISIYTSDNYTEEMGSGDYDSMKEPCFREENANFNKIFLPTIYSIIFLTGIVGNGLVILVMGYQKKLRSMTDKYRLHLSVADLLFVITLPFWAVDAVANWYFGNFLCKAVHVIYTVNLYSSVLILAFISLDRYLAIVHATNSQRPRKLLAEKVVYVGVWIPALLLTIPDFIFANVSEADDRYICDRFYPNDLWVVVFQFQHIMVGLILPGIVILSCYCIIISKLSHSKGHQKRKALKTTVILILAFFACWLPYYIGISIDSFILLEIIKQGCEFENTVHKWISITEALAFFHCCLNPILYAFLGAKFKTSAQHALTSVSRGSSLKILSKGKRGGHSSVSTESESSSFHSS

## CCOC(=O)c1cc(C#N)c(N2CCC(C(=O)NS(=O)(=O)Cc3ccccc3/C=C/C(=O)NCCNC(=O)CCc3ccc4n3[B-](F)(F)[N+]3=C(c5ccc[nH]5)C=CC3=C4)CC2)nc1C [AZD1283-1-NB590]
CXCR4; CXCR4, 0.1μM
  NanoBRET Fold Response: 0.86
CXCR4; CXCR4, 1μM
  NanoBRET Fold Response: 1.17
HTR1D; HTR1D, 0.1μM
  NanoBRET Fold Response: 0.90
HTR1D; HTR1D, 1μM
  NanoBRET Fold Response: 0.88
OPRL1; OPRL1, 0.1μM
  NanoBRET Fold Response: 0.98
OPRL1; OPRL1, 1μM
  NanoBRET Fold Response: 1.15
P2RY13; P2RY13, 0.1μM
  NanoBRET Fold Response: 1.93
P2RY13; P2RY13, 1μM
  NanoBRET Fold Response: 1.83
RXFP4; RXFP4, 0.1μM
  NanoBRET Fold Response: 1.02
RXFP4; RXFP4, 1μM
  NanoBRET Fold Response: 1.09
SSTR1; SSTR1, 0.1μM
  NanoBRET Fold Response: 1.08
SSTR1; SSTR1, 1μM
  NanoBRET Fold Response: 1.10
PTGDR2; 0.1μM
  NanoBRET Fold Response: 1.07
PTGDR2; 1μM
  NanoBRET Fold Response: 1.03
GRM2; 0.1μM
  NanoBRET Fold Response: 1.00
GRM2; 1μM
  NanoBRET Fold Response: 0.43

## N#CN/C(=N\CCNC(=O)c1ccc(N)cc1)NCCCOc1cccc(CN2CCCCC2)c1 [Aminopotentidine (unmodified)]
HTR1D; HTR1D, other tracers/Aminopotentidine (unmodified), 0.1μM
  NanoBRET Fold Response: 1.06
HTR1D; HTR1D, other tracers/Aminopotentidine (unmodified), 1μM
  NanoBRET Fold Response: 1.50

## N#CN=C(NCCCOc1cccc(CN2CCCCC2)c1)NCCNC(=O)CCOCCOCCOCCOCCNC(=O)CCc1ccc2n1[B-](F)(F)[N+]1=C(c3ccc[nH]3)C=CC1=C2 [Aminopotentidine-2-NB590]
CXCR4; CXCR4, tracer 0.1μM
  NanoBRET Fold Response: 1.08
CXCR4; CXCR4, tracer 1μM
  NanoBRET Fold Response: 0.99
HTR1D; HTR1D, tracer 0.1μM
  NanoBRET Fold Response: 1.40
HTR1D; HTR1D, tracer 1μM
  NanoBRET Fold Response: 1.21
OPRL1; OPRL1, tracer 0.1μM
  NanoBRET Fold Response: 1.05
OPRL1; OPRL1, tracer 1μM
  NanoBRET Fold Response: 1.01
P2RY13; P2RY13, tracer 0.1μM
  NanoBRET Fold Response: 0.97
P2RY13; P2RY13, tracer 1μM
  NanoBRET Fold Response: 1.02
RXFP4; RXFP4, tracer 0.1μM
  NanoBRET Fold Response: 1.02
RXFP4; RXFP4, tracer 1μM
  NanoBRET Fold Response: 1.02
SSTR1; SSTR1, tracer 0.1μM
  NanoBRET Fold Response: 1.02
SSTR1; SSTR1, tracer 1μM
  NanoBRET Fold Response: 0.98
PTGDR2; tracer 0.1μM
  NanoBRET Fold Response: 0.98
PTGDR2; tracer 1μM
  NanoBRET Fold Response: 0.48
GRM2; tracer 0.1μM
  NanoBRET Fold Response: 1.05
GRM2; tracer 1μM
  NanoBRET Fold Response: 0.99

## CN(C)CCC=C1c2ccccc2CCc2ccc(C(=O)NCCNC(=O)CCOCCOCCOCCOCCNC(=O)CCc3ccc4n3[B-](F)(F)[N+]3=C(c5ccc[nH]5)C=CC3=C4)cc21 [Amitriptyline-a-2-NB590]
CXCR4; tracer at 0.1μM
  NanoBRET Fold Response: 0.89
CXCR4; tracer at 1μM
  NanoBRET Fold Response: 1.04
HTR1D; tracer at 0.1μM
  NanoBRET Fold Response: 1.09
HTR1D; tracer at 1μM
  NanoBRET Fold Response: 1.09
OPRL1; tracer at 0.1μM
  NanoBRET Fold Response: 1.01
OPRL1; tracer at 1μM
  NanoBRET Fold Response: 0.95
P2RY13; tracer at 0.1μM
  NanoBRET Fold Response: 1.09
P2RY13; tracer at 1μM
  NanoBRET Fold Response: 0.85
RXFP4; tracer at 0.1μM
  NanoBRET Fold Response: 1.05
RXFP4; tracer at 1μM
  NanoBRET Fold Response: 1.03
SSTR1; tracer at 0.1μM
  NanoBRET Fold Response: 1.30
SSTR1; tracer at 1μM
  NanoBRET Fold Response: 1.28
